# Reference: patent US20260324636A1, “COMPOSITION FOR PROVIDING PLANT WITH STRESS RESISTANCE” (KIRIN HOLDINGS KABUSHIKI KAISHA, priority 2022, published 2026)
# What was measured:
# [1] = test system: HSFA2; experiment: HSFA2 gene expression by real-time PCR, Example 5; assay type: in vivo; details: Arabidopsis thaliana; 0.1 mM in medium, 2 hours after application, 22° C.; read-out: HSFA2 expression level, increase vs group not subjected to the treatment
# Procedure: The materials as used in Example 1 were used.
# The method as employed in Example 1 was employed.
# N-acetylglutamic acid was applied to Arabidopsis thaliana 7 days after inoculation to the final concentration of 0.1 mM in the medium, followed by incubation for 2 hours or 6 hours. The incubator was maintained at a temperature of 22° C. for a daily cycle of 16 hours light and 8 hours darkness. After incubation, the samples were frozen with liquid nitrogen, and RNA was extracted using the RNeasy Plant Mini Kit (Thermo Fischer Scientific).
# cDNA that would be necessary as a real-time PCR template was synthesized from the RNA obtained. 500 ng total RNA was used for each sample, and cDNA was synthesized using the Verso cDNA Synthesis Kit (Thermo Fischer Scientific). The synthesized cDNA was diluted to 5-fold with sterile distilled water and subjected to real-time PCR. For real-time PCR, a reaction solution containing HSFA2 (AGI code: AT2G26150) and HSP17.6C (AGI code: AT1G53540) as the target genes, ACTIN2 (AGI code: AT3G18780) as the reference gene, and TB Green Ex Taq II (TaKaRa) was prepared. PCR was performed with the use of the LightCycler® 480 System (Roche) with the number of amplification cycles of 50. […]
# Thereafter, the relative expression level of the target genes upon N-acetylglutamic acid treatment were calculated by the ΔΔCt method using the Cp values obtained by real-time PCR.
# [2] = test system: hop; experiment: Oxidation stress resistance against methyl viologen in hop leaves (leaf chlorosis, chlorophyll content), Example 10; assay type: in vivo, hop (variety: Hersbrucker); details: 1 mM, 5 μM methyl viologen, 22° C. 4 days
# Procedure: A hop strain (the variety: Hersbrucker) was used as an experimental material. Hop seedlings grown in the field of Kirin Brewery Company, Limited in Iwate, Japan were used.
# A Murashige and Skoog Plant Salt Mixture 2.2 g and glucose 20 g (FUJIFILM Wako) were dissolved in 1 l of pure water, and a pH was adjusted to 5.8. Thereafter, agar (8 g (Ina Food Industry Co., Ltd.) was dissolved and autoclaved (121° C., 15 minutes).
# A Murashige and Skoog Plant Salt Mixture 2.2 g and glucose 20 g were dissolved in 1 l of pure water, a pH was adjusted to 5.8, and the resultant was autoclaved (121° C., 20 minutes).
# Tissue-cultured seedlings required for evaluation of oxidation stress response of a hop were prepared in a laboratory. […]
# Leaf chlorosis is observed in plants upon oxidation stress exposure. Thus, an extent of chlorosis was evaluated by measuring the content of the green pigment chlorophyll in leaves.
# Plants in a well (3 leaves) was transferred to a 1.5-ml tube containing 1 ml of N,N-dimethylformamide and incubated at 4° C. in the dark for 1 day to extract the chlorophyll. The absorbance of the extract was measured at 647 nm and 664 nm, respectively, to calculate the chlorophyll content on a leaf fresh weight basis. The chlorophyll content was calculated in the same manner as in Example 1.
# [3] = test system: hop; experiment: High-temperature stress resistance in hop (fresh weight of aboveground part), Example 4; assay type: in vivo, hop (variety: Saaz); details: 0.1 mM in agar medium, 30° C. 2 weeks
# Procedure: A hop strain (the variety: Saaz) was used as an experimental material. Hop seedlings were purchased from Hananoyakata (http://hananoyakata.shop-pro.jp).
# Tissue-cultured seedlings required for evaluation of high temperature response of a hop were prepared in a laboratory. A stem fragment including a node was removed from a Saaz seedling as an explant and incubated with 70 (v/v) % ethanol (FUJIFILM Wako) for 1 minute and with 1 (v/v) % sodium hypochlorite (FUJIFILM Wako) for 5 minutes for sterilization. The explant was washed with sterile water for 1 minute, washing was repeated 3 times, moisture was removed therefrom with a paper towel, the explant was inoculated in an agar medium containing a ½ Murashige and Skoog Plant Salt Mixture, 2 (w/v) % glucose, and 0.2 (w/v) % gellan gum (FUJIFILM Wako), and culture was initiated in an incubator. The incubator was maintained at a temperature of 20° C. for a daily cycle of 16 hours light and 8 hours darkness. Two weeks after the initiation of culture, axillary buds extending from the nodes were cut and inoculated into an agar medium, and the sufficiently grown seedlings were designated as “tissue-cultured seedlings.” Tissue-cultured seedlings were subcultured by inoculating apical buds into fresh agar media every 1.5 months. […]
compound,measurement,setting,value
CC(=O)N[C@@H](CCC(=O)O)C(=O)O [N-acetylglutamic acid],fold induction at 100 µM,[1],2.5
same,"leaf chlorosis in MV-treated group, compared with control group",[2],more suppressed
same,"decrease in the chlorophyll content in the MV-treated groups, compared with the control group",[2]; leaf fresh weight basis,suppressed
same,"fresh weight of the aboveground part, increase relative to the group not subjected to the treatment",[3],1.8 times
same,decrease in the fresh weight of the aboveground part caused by the high-temperature treatment,[3]; vs control group,suppressed
